Source: patent US11827543B2, “Method for continuous supply of superoxide-containing peracetate oxidant solution” (Clean Chemistry, Inc., priority 2014, dated 2023)

Columns and labels:
[1] = ORP (oxidative-reductive potential) measurement of solutions and treated water; format: physicochemical; settings: for ORP: 29 mM, pH 7; for ORP (mV vs SHE): early flowback water, Example 19, 1.7 mmol/L oxidant
Description: Example 9: Hydrogen Peroxide Residual Concentration and interference. A sodium peracetate oxidant solution was produced according to the procedure in Example 4 and diluted to 2800 mg/L (28.5 mmol/L) with either distilled water, for clean water conditions, or tap water containing about 0.18 mg/L copper, which served as an activation catalyst. Some samples were spiked with 30 or 60 mg/L (0.88 or 1.76 mmol/L, respectively) hydrogen peroxide from a 1000 mg/L stock solution. […] The temperature of the samples was maintained at 25±2° C. with a heated water bath. The ORP response was monitored over time to observe the impact of adding low concentrations of hydrogen peroxide. The pH was measured using a high sodium electrode (Oakton model 35805-05) with three point calibration and automatic temperature correction. The ORP (oxidative-reductive potential) of solutions was measured using an Oakton model 35805-15 ORP probe calibrated to the standard hydrogen electrode (SHE) using Thermo/Orion ORP standard 967901.
(§1) Water parameters were measured by a variety of methods. The pH was measured using a high sodium electrode (Oakton model 35805-05) with three point calibration and automatic temperature correction. The ORP (oxidative-reductive potential) of solutions was measured using an Oakton model 35805-15 ORP probe calibrated to the standard hydrogen electrode (SHE) using Thermo/Orion ORP standard 967901. Sodium ion concentration was measured using a Cole-Parmer ion selective electrode, EW-27504-30, with two point calibration of a sodium standard solution of NaCl. Chloride ion concentration was measured using a Cole-Parmer ion selective electrode, SC-27504-08, with two point calibration of a chloride standard solution of NaCl. All measurements using HACH methods were measured using a HACH DR900 colorimeter. Calcium, magnesium and total hardness concentrations were measured using HACH method 8030. Sulfate concentration was measured using HACH method 10248. Aluminum concentration was measured using HACH method 8012. Iron concentration was measured using HACH method 10249 modified with a longer reaction time to minimize interferences from organic impurities. Total suspended solids (TSS) concentration was measured using HACH method 8006 modified for smaller volumes. Turbidity was measured using HACH method 8237. ATP (adenosine triphosphate) concentration was measured using the LuminUltra 2nd Generation metabolic ATP measurement technology with the LuminUltra Quench Gone-Organic Modified sampling method, a PhotonMaster Luminometer and LumiCalc software. Acid producing bacteria (ABP) and sulfate reducing bacteria (SRB) cell culture concentrations were measured with standard 1 mL serial dilutions using Intertek APB and SRB culture media, 1% salinity.

[2] = pH of treated water; format: physicochemical
Description: as §1

[3] = Chlorine dioxide stock solution concentration over time (HACH DPD method); format: physicochemical; settings: 2800 mg/L stock solution, room temperature, 7 days
Description: Chlorine dioxide stock solution preparation: One AQUA-Tab 20 G chlorine dioxide tablet (Beckart Environmental, Inc.) was dissolved in 32 oz (946 mL) of distilled water in a closed polyethylene container according to the product instructions. The yellow solution was allowed to sit for at least 1 hour before use. The chlorine dioxide concentration was measured before use using the HACH DPD method no. 10126 after diluting 0.330 mL of the prepared chlorine dioxide stock solution with distilled water to 200 mL in a volumetric flask. The initial chlorine dioxide concentration of the stock solution was measured to be 2800 mg/L. The concentration decreased slowly over time at room temperature, e.g., 6.4% decrease in 7 days.

[4] = tested on: bacteria; experiment: ATP concentration (LuminUltra metabolic ATP measurement) in oxidant-treated water; format: cell-based; settings: produced water, Example 18, 0.30 mmol/L oxidant
[5] = produced water, Example 18, 0.30 mmol/L oxidant

In the case of `OCl` [sodium hypochlorite, reference compound], the “ORP (constant)” value ([1]; diluted, pH 10.00±0.02, 25±2 °C) is reported as “about 914 mV vs SHE”.

With `OO` [hydrogen peroxide, reference compound] the ORP [1] was “about 0.5 V (SHE)”.

With `[O][Cl+][O-]` [chlorine dioxide, reference compound] the “ORP (mV vs SHE)” value ([1]; contact time 3 minutes) was 646 mV vs SHE, the “ORP (mV vs SHE)” value ([1]; contact time 13 minutes) was 580 mV vs SHE and the “ORP (mV vs SHE)” value ([1]; contact time 35 minutes) was 496 mV vs SHE. For the same compound, the “ORP (mV vs SHE)” value ([1]; contact time 90 minutes) was 456 mV vs SHE, the “ORP (mV vs SHE), maximum” value [1, 5] was 818 mV vs SHE and the “ORP after slow decrease” value ([1]; produced water, Example 18, 0.30 mmol/L, in the following 17 minutes) was 785 mV vs SHE. It also gave a pH ([2]; early flowback water, Example 19, 1.7 mmol/L oxidant, contact time 3 minutes) of 6.33, a pH ([2]; early flowback water, Example 19, 1.7 mmol/L oxidant, contact time 13 minutes) of 6.32 and a pH ([2]; early flowback water, Example 19, 1.7 mmol/L oxidant, contact time 35 minutes) of 6.32. For the same compound, the pH ([2]; early flowback water, Example 19, 1.7 mmol/L oxidant, contact time 90 minutes) was 6.36, the pH [2, 5] was 5.6 and the “decrease of concentration of stock solution” value [3] was 6.4%. The “ATP (pg/mL), at 30 min CT” value [4] was 7.7 pg/mL, the “ATP reduction at 30 min CT” value [4] was 94.3% and the “ATP (pg/mL), at 15 min CT” value ([4]; untreated 135) was 10.3 pg/mL.

For `OCl` [hypochlorous acid, reference compound], the ORP [1] was “over 1.1 V (SHE)”.
